“And” between values parts separate entries of the source, which are not always exact repeats. Equal values may be shown once.
Test system: BDF1 mice, Adenocarcinoma 755 s.c., tumor weight T/C
Assay: NCI In Vivo Anticancer Drug Screen. Data for tumor model Adenocarcinoma 755 (subcutaneous) in B6D2F1 (BDF1) mice
Conditions: endpoint: mean tumor weight, higher = larger tumour
In short: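 Transplantable tumor implanted; mice dosed with compound or vehicle; survival or tumor size recorded; ratio of treated to vehicle control reported.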

[1] = dose: 100.0 mg/kg/injection, schedule: Q01DX011 (sc), vehicle: steriod suspending solution
[2] = dose: 200.0 mg/kg/injection, schedule: Q01DX011 (sc), vehicle: steriod suspending solution
[3] = dose: 31.0 mg/kg/injection, schedule: Q01DX011 (ip), vehicle: methylcellulose (MC)

For CC(=O)[C@@]1(O)CC[C@H]2[C@@H]3C[C@H](C)C4=CC(=O)C=C[C@]4(C)[C@@]3(F)[C@@H](O)C[C@@]21C, the T/C (dose: 0.37 mg/kg/injection, schedule: Q#A X022 (sc), vehicle: steriod suspending solution) was 55 % of control, the T/C (dose: 0.5 mg/kg/injection, schedule: Q01DX011 (sc), vehicle: steriod suspending solution) was 40 % of control and the T/C (dose: 0.75 mg/kg/injection, schedule: Q#A X022 (sc), vehicle: steriod suspending solution) was 67 % of control. The T/C (dose: 1.0 mg/kg/injection, schedule: Q03DX004 (sc), vehicle: steriod suspending solution) was 62 % of control, the T/C (dose: 1.5 mg/kg/injection, schedule: Q#A X022 (sc), vehicle: steriod suspending solution) was 44 % of control and the T/C (dose: 1.6 mg/kg/injection, schedule: Q01DX011 (sc), vehicle: steriod suspending solution) was 57 % of control. For the same compound, the T/C (dose: 2.0 mg/kg/injection, schedule: Q03DX004 (sc), vehicle: steriod suspending solution) was 44 % of control, the T/C (dose: 3.0 mg/kg/injection, schedule: Q01DX011 (im), vehicle: steriod suspending solution) was 43 % of control and the T/C (dose: 3.0 mg/kg/injection, schedule: Q01DX011 (sc), vehicle: steriod suspending solution) was 47 % of control and 51 % of control. The T/C (dose: 3.0 mg/kg/injection, schedule: Q#A X022 (sc), vehicle: steriod suspending solution) was 39 % of control, the T/C (dose: 3.2 mg/kg/injection, schedule: Q01DX011 (sc), vehicle: steriod suspending solution) was 31 % of control and the T/C (dose: 4.0 mg/kg/injection, schedule: Q03DX004 (sc), vehicle: steriod suspending solution) was 72 % of control. For the same compound, the T/C (dose: 6.0 mg/kg/injection, schedule: Q01DX011 (im), vehicle: steriod suspending solution) was 38 % of control, the T/C (dose: 6.0 mg/kg/injection, schedule: Q01DX011 (sc), vehicle: steriod suspending solution) was 16 % of control and 25 % of control and the T/C (dose: 6.3 mg/kg/injection, schedule: Q01DX011 (sc), vehicle: steriod suspending solution) was 49 % of control. The T/C (dose: 8.0 mg/kg/injection, schedule: Q03DX004 (sc), vehicle: steriod suspending solution) was 52 % of control, the T/C (dose: 9.0 mg/kg/injection, schedule: Q03DX004 (sc), vehicle: steriod suspending solution) was 35 % of control and the T/C (dose: 12.0 mg/kg/injection, schedule: Q01DX011 (sc), vehicle: steriod suspending solution) was 16 % of control. For the same compound, the T/C (dose: 12.5 mg/kg/injection, schedule: Q01DX006 (iv), vehicle: steriod suspending solution) was 45 % of control, the T/C (dose: 12.5 mg/kg/injection, schedule: Q01DX011 (im), vehicle: steriod suspending solution) was 21 % of control and the T/C (dose: 12.5 mg/kg/injection, schedule: Q01DX011 (ip), vehicle: steriod suspending solution) was 48 % of control. For the same compound, the T/C (dose: 12.5 mg/kg/injection, schedule: Q01DX011 (sc), vehicle: steriod suspending solution) was 19 % of control and 39 % of control, the T/C (dose: 18.0 mg/kg/injection, schedule: Q03DX004 (sc), vehicle: steriod suspending solution) was 35 % of control and the T/C (dose: 22.0 mg/kg/injection, schedule: Q## X002 (sc), vehicle: steriod suspending solution) was 55 % of control. For the same compound, the T/C (dose: 24.0 mg/kg/injection, schedule: Q01DX011 (sc), vehicle: steriod suspending solution) was 20 % of control, the T/C (dose: 25.0 mg/kg/injection, schedule: Q01DX006 (iv), vehicle: steriod suspending solution) was 30 % of control and the T/C (dose: 25.0 mg/kg/injection, schedule: Q01DX011 (im), vehicle: steriod suspending solution) was 12 % of control. For the same compound, the T/C (dose: 25.0 mg/kg/injection, schedule: Q01DX011 (ip), vehicle: steriod suspending solution) was 42 % of control, the T/C (dose: 25.0 mg/kg/injection, schedule: Q01DX011 (sc), vehicle: steriod suspending solution) was 12 % of control and the T/C (dose: 27.5 mg/kg/injection, schedule: Q01DX011 (sc), vehicle: steriod suspending solution) was 36 % of control and 54 % of control. The T/C (dose: 37.0 mg/kg/injection, schedule: Q03DX004 (sc), vehicle: steriod suspending solution) was 36 % of control, the T/C (dose: 43.0 mg/kg/injection, schedule: Q## X002 (sc), vehicle: steriod suspending solution) was 30 % of control and the T/C (dose: 50.0 mg/kg/injection, schedule: Q01DX006 (iv), vehicle: steriod suspending solution) was 25 % of control. For the same compound, the T/C (dose: 50.0 mg/kg/injection, schedule: Q01DX011 (im), vehicle: steriod suspending solution) was 14 % of control, the T/C (dose: 50.0 mg/kg/injection, schedule: Q01DX011 (ip), vehicle: steriod suspending solution) was 34 % of control and the T/C (dose: 50.0 mg/kg/injection, schedule: Q01DX011 (oral), vehicle: steriod suspending solution) was 47 % of control. For the same compound, the T/C (dose: 50.0 mg/kg/injection, schedule: Q01DX011 (sc), vehicle: steriod suspending solution) was 11 % of control, the T/C (dose: 55.0 mg/kg/injection, schedule: Q01DX011 (sc), vehicle: steriod suspending solution) was 28 % of control and the T/C (dose: 75.0 mg/kg/injection, schedule: Q03DX004 (sc), vehicle: steriod suspending solution) was 18 % of control. For the same compound, the T/C (dose: 87.0 mg/kg/injection, schedule: Q01DX001 (sc), vehicle: steriod suspending solution) was 53 % of control and 66 % of control, the T/C (dose: 87.0 mg/kg/injection, schedule: Q07DX002 (sc), vehicle: steriod suspending solution) was 37 % of control and the T/C (dose: 100.0 mg/kg/injection, schedule: Q01DX006 (iv), vehicle: steriod suspending solution) was 19 % of control. For the same compound, the T/C (dose: 100.0 mg/kg/injection, schedule: Q01DX011 (im), vehicle: steriod suspending solution) was 7 % of control, the T/C (dose: 100.0 mg/kg/injection, schedule: Q01DX011 (oral), vehicle: steriod suspending solution) was 59 % of control and the T/C [1] was 13 % of control. For the same compound, the T/C (dose: 150.0 mg/kg/injection, schedule: Q03DX004 (sc), vehicle: steriod suspending solution) was 25 % of control, the T/C (dose: 175.0 mg/kg/injection, schedule: Q01DX001 (sc), vehicle: steriod suspending solution) was 38 % of control and 43 % of control and the T/C (dose: 175.0 mg/kg/injection, schedule: Q07DX002 (sc), vehicle: steriod suspending solution) was 27 % of control. For the same compound, the T/C (dose: 200.0 mg/kg/injection, schedule: Q01DX006 (iv), vehicle: steriod suspending solution) was 14 % of control, the T/C (dose: 200.0 mg/kg/injection, schedule: Q01DX011 (im), vehicle: steriod suspending solution) was 8 % of control and the T/C (dose: 200.0 mg/kg/injection, schedule: Q01DX011 (oral), vehicle: steriod suspending solution) was 42 % of control. The T/C [2] was 3 % of control, the T/C (dose: 300.0 mg/kg/injection, schedule: Q01DX011 (sc), vehicle: steriod suspending solution) was 7 % of control and the T/C (dose: 300.0 mg/kg/injection, schedule: Q03DX004 (sc), vehicle: steriod suspending solution) was 15 % of control. The T/C (dose: 350.0 mg/kg/injection, schedule: Q01DX001 (sc), vehicle: steriod suspending solution) was 28 % of control and 47 % of control, the T/C (dose: 350.0 mg/kg/injection, schedule: Q07DX002 (sc), vehicle: steriod suspending solution) was 19 % of control and the T/C (dose: 400.0 mg/kg/injection, schedule: Q01DX011 (oral), vehicle: steriod suspending solution) was 34 % of control. The T/C (dose: 400.0 mg/kg/injection, schedule: Q03DX004 (sc), vehicle: steriod suspending solution) was 19 % of control, the T/C (dose: 500.0 mg/kg/injection, schedule: Q01DX011 (oral), vehicle: steriod suspending solution) was 37 % of control and the T/C (dose: 600.0 mg/kg/injection, schedule: Q01DX011 (oral), vehicle: steriod suspending solution) was 38 % of control. The T/C (dose: 600.0 mg/kg/injection, schedule: Q03DX004 (sc), vehicle: steriod suspending solution) was 15 % of control, the T/C (dose: 700.0 mg/kg/injection, schedule: Q01DX001 (sc), vehicle: steriod suspending solution) was 26 % of control and 43 % of control and the T/C (dose: 700.0 mg/kg/injection, schedule: Q07DX002 (sc), vehicle: steriod suspending solution) was 19 % of control. The T/C (dose: 1000.0 mg/kg/injection, schedule: Q01DX001 (sc), vehicle: steriod suspending solution) was 36 % of control and 45 % of control, the T/C (dose: 1000.0 mg/kg/injection, schedule: Q## X002 (sc), vehicle: steriod suspending solution) was 22 % of control and the T/C (dose: 1500.0 mg/kg/injection, schedule: Q01DX001 (sc), vehicle: steriod suspending solution) was 24 % of control and 40 % of control. For the same compound, the T/C (dose: 1500.0 mg/kg/injection, schedule: Q## X002 (sc), vehicle: steriod suspending solution) was 24 % of control.

In the case of CC(Sc1nc(N)nc2nc[nH]c12)C(=O)O (stereo unspecified), the T/C (dose: 37.5 mg/kg/injection, schedule: Q01DX011 (ip), vehicle: saline) is reported as 81 % of control, the T/C (dose: 75.0 mg/kg/injection, schedule: Q01DX011 (ip), vehicle: saline) is reported as 74 % of control and the T/C (dose: 150.0 mg/kg/injection, schedule: Q01DX011 (ip), vehicle: saline) is reported as 45 % of control. The T/C (dose: 300.0 mg/kg/injection, schedule: Q01DX011 (ip), vehicle: saline) was 12 % of control.

CN(C)c1nc(N)c2ncn(C3OC(CO)C(O)C3O)c2n1 (stereo unspecified) was tested, and the T/C [3] was 80 % of control and the T/C (dose: 125.0 mg/kg/injection, schedule: Q01DX011 (ip), vehicle: methylcellulose (MC)) was 74 % of control.

CCCCCCCCCCCCCCCC[n+]1ccccc1 was tested, and the T/C (dose: 0.12 mg/kg/injection, schedule: Q01DX011 (ip), vehicle: water) was 89 % of control, the T/C (dose: 0.25 mg/kg/injection, schedule: Q01DX011 (ip), vehicle: water) was 79 % of control and the T/C (dose: 0.5 mg/kg/injection, schedule: Q01DX011 (ip), vehicle: water) was 89 % of control.

For C[C@]12CCC(=O)C=C1CC[C@@H]1[C@@H]2[C@@H](O)C[C@]2(C)C(=O)CC[C@@H]12, the T/C [1] was 107 % of control and the T/C [2] was 83 % of control.

With Cc1cnc(SCc2ccc(Cl)cc2Cl)nc1Nc1ccc(Cl)c(Cl)c1 the T/C (dose: 15.0 mg/kg/injection, schedule: Q01DX011 (ip), vehicle: methylcellulose (MC)) was 74 % of control, the T/C [3] was 97 % of control and the T/C (dose: 62.0 mg/kg/injection, schedule: Q01DX011 (ip), vehicle: methylcellulose (MC)) was 69 % of control.
